For test [1], the target named is Vascular endothelial growth factor receptor 3 (Homo sapiens, UniProt P35916). The experiment in a line: Selectivity interaction (SelectScreen profiling (Invitrogen)) EUB0000607a FLT4. As to conditions: at 2 µM.
Test [2] has as its target T1, Ephrin type-B receptor 1 (Homo sapiens) (UniProt P54762).
T1 sequence (whole entry): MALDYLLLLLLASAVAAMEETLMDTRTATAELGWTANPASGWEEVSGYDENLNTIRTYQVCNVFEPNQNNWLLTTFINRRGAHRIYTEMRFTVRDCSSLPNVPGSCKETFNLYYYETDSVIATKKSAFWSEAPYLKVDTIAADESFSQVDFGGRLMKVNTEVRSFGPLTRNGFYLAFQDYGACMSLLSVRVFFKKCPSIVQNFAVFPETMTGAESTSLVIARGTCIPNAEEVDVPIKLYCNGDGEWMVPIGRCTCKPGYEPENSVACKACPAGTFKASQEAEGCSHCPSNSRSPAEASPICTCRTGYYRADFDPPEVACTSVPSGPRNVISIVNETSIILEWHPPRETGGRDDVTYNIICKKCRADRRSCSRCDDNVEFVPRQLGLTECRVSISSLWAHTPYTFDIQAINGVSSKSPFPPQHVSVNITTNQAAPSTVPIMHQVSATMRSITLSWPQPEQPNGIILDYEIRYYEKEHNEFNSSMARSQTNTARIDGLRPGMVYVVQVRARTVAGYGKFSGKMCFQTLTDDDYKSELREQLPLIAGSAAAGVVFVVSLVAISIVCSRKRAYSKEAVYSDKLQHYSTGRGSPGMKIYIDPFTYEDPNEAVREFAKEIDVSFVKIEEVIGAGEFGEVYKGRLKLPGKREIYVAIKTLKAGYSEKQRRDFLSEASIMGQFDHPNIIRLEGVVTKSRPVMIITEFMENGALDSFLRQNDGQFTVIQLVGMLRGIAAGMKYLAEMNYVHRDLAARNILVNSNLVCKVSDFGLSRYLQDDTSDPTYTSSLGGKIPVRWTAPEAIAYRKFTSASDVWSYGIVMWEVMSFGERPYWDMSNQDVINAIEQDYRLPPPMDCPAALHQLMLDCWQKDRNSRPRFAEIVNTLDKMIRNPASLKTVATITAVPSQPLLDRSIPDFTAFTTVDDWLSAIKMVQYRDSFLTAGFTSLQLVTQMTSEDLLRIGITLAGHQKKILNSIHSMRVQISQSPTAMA
The experiment in a line: Selectivity interaction (KinomeScan (DiscoverX)) EUB0000655a EPHB1. As to conditions: at 10 µM.

Test [3] deals with T2, Mitogen-activated protein kinase kinase kinase kinase 2 (Homo sapiens) (UniProt Q12851).
T2 sequence (whole entry): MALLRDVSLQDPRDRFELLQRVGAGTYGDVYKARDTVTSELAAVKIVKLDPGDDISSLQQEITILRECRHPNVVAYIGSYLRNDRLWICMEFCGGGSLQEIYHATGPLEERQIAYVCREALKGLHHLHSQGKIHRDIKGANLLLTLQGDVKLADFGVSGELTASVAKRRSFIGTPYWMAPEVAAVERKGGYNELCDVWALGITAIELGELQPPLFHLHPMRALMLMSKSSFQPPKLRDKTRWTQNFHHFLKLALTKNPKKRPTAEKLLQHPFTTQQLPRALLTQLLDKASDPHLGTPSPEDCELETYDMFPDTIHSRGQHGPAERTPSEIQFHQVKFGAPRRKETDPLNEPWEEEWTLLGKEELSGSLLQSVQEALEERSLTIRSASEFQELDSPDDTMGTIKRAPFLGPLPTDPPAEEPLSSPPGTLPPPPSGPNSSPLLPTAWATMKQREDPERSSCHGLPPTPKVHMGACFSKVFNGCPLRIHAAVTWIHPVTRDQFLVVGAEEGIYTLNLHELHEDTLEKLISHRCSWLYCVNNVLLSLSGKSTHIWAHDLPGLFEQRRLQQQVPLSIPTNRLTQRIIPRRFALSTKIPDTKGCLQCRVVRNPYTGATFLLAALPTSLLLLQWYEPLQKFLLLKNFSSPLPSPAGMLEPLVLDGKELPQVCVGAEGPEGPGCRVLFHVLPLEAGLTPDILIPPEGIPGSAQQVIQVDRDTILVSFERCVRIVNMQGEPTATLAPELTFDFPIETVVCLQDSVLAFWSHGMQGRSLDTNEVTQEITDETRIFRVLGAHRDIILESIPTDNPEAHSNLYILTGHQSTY
The experiment in a line: Selectivity interaction (KinomeScan (DiscoverX)) EUB0001619a MAP4K2. As to conditions: at 1 µM.

For test [4], the target named is Calcium/calmodulin-dependent protein kinase type II subunit alpha (Homo sapiens, UniProt Q9UQM7). The experiment in a line: Selectivity interaction (Kinase panel (literature)) EUB0001199aCl CAMK2A. As to conditions: at 1 µM.
Sequence of Calcium/calmodulin-dependent protein kinase type II subunit alpha (Q9UQM7 whole entry): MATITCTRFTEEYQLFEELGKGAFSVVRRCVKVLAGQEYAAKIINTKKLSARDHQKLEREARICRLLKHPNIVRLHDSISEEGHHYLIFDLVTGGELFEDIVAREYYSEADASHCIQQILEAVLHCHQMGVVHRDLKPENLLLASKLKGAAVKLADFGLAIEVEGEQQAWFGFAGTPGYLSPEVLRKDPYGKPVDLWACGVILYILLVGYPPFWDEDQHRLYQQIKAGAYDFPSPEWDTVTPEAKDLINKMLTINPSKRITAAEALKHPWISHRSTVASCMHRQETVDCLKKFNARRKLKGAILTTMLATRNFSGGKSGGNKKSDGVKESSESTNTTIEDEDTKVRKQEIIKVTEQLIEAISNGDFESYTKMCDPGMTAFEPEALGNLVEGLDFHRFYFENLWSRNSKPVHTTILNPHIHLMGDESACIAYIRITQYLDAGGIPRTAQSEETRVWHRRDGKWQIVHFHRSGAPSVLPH
Test [5] addresses Serine/threonine-protein kinase MARK2 (Homo sapiens) (UniProt Q7KZI7). The experiment in a line: Selectivity interaction (ActivX KiNativ screen (kinase selectivity in THP-1 cell lysates)) EUB0000639a MARK2. The format is subcellular. The note with it: lysate, at 0.01 µM.
The target in test [6] is Fibroblast growth factor receptor 1 (Homo sapiens, UniProt P11362). The experiment in a line: Selectivity interaction (Kinase screening (Nanosyn)) EUB0000604a FGFR1.
Sequence of Fibroblast growth factor receptor 1 (P11362 22-822 limits assumed): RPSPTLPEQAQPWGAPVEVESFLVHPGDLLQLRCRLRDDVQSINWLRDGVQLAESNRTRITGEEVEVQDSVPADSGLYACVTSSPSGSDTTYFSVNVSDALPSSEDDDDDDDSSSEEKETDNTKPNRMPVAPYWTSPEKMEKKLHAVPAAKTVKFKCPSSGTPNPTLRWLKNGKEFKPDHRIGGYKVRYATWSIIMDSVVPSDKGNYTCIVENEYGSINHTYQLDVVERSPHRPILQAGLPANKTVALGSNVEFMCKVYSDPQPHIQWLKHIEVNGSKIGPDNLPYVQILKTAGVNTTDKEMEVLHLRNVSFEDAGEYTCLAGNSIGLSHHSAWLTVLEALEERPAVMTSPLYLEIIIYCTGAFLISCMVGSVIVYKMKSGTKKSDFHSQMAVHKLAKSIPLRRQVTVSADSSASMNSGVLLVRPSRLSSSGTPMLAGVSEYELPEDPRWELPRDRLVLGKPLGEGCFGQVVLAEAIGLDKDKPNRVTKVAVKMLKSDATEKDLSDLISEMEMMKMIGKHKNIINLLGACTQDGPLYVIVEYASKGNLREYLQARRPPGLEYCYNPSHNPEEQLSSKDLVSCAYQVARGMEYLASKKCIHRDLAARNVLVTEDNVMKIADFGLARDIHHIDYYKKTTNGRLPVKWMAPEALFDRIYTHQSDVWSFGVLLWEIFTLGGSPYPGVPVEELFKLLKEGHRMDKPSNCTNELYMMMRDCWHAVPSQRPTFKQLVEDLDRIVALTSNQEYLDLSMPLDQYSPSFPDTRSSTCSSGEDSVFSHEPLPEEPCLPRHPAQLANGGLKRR
In test [7] the target is Calcium/calmodulin-dependent protein kinase type II subunit gamma (Homo sapiens) (UniProt Q13555). The note with it: at 10 µM.
Sequence of Calcium/calmodulin-dependent protein kinase type II subunit gamma (Homo sapiens) (Q13555 whole entry): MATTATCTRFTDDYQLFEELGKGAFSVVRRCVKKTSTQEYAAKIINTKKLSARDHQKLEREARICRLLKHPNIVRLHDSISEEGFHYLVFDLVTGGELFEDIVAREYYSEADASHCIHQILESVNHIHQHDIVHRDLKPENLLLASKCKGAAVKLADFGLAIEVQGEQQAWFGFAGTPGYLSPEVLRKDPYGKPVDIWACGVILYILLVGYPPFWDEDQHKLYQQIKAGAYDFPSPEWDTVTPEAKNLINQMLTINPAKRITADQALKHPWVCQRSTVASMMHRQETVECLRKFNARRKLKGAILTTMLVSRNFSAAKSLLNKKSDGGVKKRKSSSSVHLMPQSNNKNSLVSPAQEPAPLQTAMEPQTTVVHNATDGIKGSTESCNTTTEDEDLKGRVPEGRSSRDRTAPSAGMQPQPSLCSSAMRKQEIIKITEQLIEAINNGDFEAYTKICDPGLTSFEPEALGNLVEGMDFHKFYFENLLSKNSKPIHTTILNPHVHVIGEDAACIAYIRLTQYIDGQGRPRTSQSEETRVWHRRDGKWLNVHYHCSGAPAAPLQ
Test [8] concerns the target Serine/threonine-protein kinase PAK 6 (Homo sapiens) (UniProt Q9NQU5). The experiment in a line: Selectivity interaction (KinomeScan (DiscoverX)) EUB0000092b PAK6. As to conditions: at 10 µM.
Test [9] has as its target TGF-beta receptor type-2 (Homo sapiens) (UniProt P37173). The experiment in a line: Selectivity interaction (KinomeScan (DiscoverX)) EUB0000045b TGFBR2.
In test [10] the target is Mitogen-activated protein kinase 11 (Homo sapiens) (UniProt Q15759). The experiment in a line: Selectivity interaction (KinomeScan (DiscoverX)) EUB0000595a MAPK11. As to conditions: at 10 µM.
Sequence of Mitogen-activated protein kinase 11 (Homo sapiens) (Q15759 whole entry): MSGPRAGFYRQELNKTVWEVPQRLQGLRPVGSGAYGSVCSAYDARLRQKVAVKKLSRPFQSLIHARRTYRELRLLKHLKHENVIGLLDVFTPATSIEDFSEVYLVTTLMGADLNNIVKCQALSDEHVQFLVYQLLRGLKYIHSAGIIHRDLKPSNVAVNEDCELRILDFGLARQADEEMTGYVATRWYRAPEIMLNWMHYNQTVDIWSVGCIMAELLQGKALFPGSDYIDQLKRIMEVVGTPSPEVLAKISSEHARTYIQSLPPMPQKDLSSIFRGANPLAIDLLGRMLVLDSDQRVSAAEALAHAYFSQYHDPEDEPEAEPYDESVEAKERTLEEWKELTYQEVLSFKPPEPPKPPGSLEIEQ

SMILES strings stand for the structures.

Sequence of TGF-beta receptor type-2 (Homo sapiens) (P37173 whole entry): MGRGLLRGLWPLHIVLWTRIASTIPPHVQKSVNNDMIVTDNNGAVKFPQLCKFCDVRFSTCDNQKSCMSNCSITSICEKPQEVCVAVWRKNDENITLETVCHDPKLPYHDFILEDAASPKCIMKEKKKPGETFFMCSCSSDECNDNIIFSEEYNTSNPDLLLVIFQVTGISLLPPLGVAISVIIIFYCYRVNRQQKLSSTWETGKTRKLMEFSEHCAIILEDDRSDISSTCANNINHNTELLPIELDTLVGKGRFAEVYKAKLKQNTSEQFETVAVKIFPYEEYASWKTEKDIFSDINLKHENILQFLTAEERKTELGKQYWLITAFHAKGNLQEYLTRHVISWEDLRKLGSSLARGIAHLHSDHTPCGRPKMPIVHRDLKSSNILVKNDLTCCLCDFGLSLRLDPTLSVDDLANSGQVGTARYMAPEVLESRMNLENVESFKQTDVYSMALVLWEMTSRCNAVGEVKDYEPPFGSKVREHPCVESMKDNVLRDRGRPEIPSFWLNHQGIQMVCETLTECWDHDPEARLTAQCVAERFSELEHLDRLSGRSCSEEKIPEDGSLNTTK
Sequence of Serine/threonine-protein kinase PAK 6 (Homo sapiens) (Q9NQU5 whole entry, looked up): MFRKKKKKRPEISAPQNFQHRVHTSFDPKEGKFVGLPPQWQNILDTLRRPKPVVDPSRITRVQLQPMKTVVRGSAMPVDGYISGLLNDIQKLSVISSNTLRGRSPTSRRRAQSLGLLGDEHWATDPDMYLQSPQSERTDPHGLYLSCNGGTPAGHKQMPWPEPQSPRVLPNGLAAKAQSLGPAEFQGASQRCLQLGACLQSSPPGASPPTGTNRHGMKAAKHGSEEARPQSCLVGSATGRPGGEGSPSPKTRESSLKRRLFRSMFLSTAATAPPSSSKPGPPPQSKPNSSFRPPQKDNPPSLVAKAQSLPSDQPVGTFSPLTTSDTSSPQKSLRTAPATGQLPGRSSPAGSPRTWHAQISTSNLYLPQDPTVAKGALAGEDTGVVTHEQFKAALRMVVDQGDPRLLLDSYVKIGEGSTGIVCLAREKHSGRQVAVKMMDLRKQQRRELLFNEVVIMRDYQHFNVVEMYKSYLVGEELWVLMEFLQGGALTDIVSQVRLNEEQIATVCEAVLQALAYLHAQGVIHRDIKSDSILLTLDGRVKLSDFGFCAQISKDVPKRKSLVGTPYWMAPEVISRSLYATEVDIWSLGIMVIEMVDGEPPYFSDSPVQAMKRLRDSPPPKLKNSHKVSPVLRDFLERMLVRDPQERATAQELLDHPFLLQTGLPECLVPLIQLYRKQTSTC
Sequence of Serine/threonine-protein kinase MARK2 (Homo sapiens) (Q7KZI7 whole entry): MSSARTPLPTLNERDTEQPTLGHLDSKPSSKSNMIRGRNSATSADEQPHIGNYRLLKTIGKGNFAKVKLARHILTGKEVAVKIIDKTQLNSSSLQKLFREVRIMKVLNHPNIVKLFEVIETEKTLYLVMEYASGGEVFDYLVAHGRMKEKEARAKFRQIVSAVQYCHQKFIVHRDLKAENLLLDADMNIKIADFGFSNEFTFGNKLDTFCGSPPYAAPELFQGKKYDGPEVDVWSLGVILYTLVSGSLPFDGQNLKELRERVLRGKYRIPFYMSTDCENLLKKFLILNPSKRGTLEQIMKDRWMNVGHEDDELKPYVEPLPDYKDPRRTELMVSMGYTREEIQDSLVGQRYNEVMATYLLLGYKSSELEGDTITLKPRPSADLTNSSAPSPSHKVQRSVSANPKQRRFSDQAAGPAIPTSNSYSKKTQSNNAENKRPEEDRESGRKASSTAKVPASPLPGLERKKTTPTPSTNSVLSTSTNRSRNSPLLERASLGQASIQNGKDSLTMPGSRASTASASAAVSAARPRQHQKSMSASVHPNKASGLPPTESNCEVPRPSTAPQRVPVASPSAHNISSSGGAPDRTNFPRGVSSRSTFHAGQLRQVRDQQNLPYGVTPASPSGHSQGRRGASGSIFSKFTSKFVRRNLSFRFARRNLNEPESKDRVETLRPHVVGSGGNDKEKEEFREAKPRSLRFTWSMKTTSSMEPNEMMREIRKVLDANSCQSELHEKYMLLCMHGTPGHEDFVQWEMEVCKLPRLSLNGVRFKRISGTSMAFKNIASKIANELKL

Turning to `CNC(=O)Nc1ccc(-c2nc(N3CC4CCC(C3)O4)c3cnn(C4CCC5(CC4)OCCO5)c3n2)cc1`, the % of inhibition in [1] is 4%.

Regarding `CN(C)CCOc1ccc(-c2nc(-c3ccncc3)c(-c3ccc4c(c3)CC/C4=N\O)[nH]2)cc1`, the % of control in test [2] was 100%.

Take `N#Cc1cccc(-c2c[nH]c3ncnc(N4CCOCC4)c23)c1`: the % of control in test [3] amounted to 3.4%.

Consider `CN1Cc2nccc(-c3cn(C)nc3-c3ccc(F)cc3)c2C1=O`, for which, in test [4], the % of inhibition came to 10%.

On to `CC[C@@H]1[C@H](F)C(=O)N[C@@H]1COc1nccc2cc(C(N)=O)c(OC)cc12` [ZIMLOVISERTIB], for which, in test [5], the % of inhibition is -5.4%.

For the compound `Cc1cnc(Nc2ccc(F)cc2Cl)nc1-c1c[nH]c(C(=O)N[C@H](CO)c2cccc(Cl)c2)c1`, in test [6], the % of inhibition came to 3%.

For the compound `CCN(CC)CCCCNc1ncc2cc(-c3cc(OC)cc(OC)c3)c(NC(=O)NC(C)(C)C)nc2n1`, the % of control in test [7] is 100%.

`CCC(=O)N1CCN(c2ccc(-n3c(=O)ccc4cnc5ccc(-c6cnc7ccccc7c6)cc5c43)cc2C(F)(F)F)CC1` returned a % of control in test [8] of 87%.

On to `C=CC(=O)Nc1cc(-n2c(=O)ccc3cnc4ccc(-c5ccc(NS(C)(=O)=O)cc5)cc4c32)ccc1C`, for which the % of control in test [9] (at 1 µM) and in test [9] (at 10 µM) was 100% throughout.

As to `COCC(=O)NC/C=C/c1ccc2ncnc(Nc3ccc(Oc4ccc(C)nc4)c(C)c3)c2c1` [CP-724714], in test [10], the % of control turned out to be 100%.

The values are drawn from ChEMBL document CHEMBL5465560, “Selectivity Literature for EUbOPEN Chemogenomic Library” (2024).
